Measurements from US9447090B2, “Imidazopyridine compounds” (Astellas Pharma Inc., priority 2011, dated 2016).

What was measured:
[1] = system: Wistar male rats; experiment: Blood flow increasing in vivo: hind limb blood flow in anesthetized rats, laser blood flow imaging; conditions: rat hind limb, oral, 2 hours after administration
Method: The hind limb blood flow in rats anesthetized with pentobarbital was measured by the following test method. Wistar male rats were used. […] Thus prepared administration liquid was orally administered, and 2 hours later, the hind limb blood flow was measured using a laser blood flow imaging device (PIM II Integral) under anesthesia with intraperitoneal administration of 60 mg/kg of pentobarbital.

[2] = target: human purified sGC (Homo sapiens (Human), UniProt Q02108+Q02153); experiment: Measurement of sGC activation (enzyme): cGMP produced by human purified sGC, HTRF; type: biochemical; conditions: for sGC activation [%]: activation when the compound was not added taken as 100%, maximum concentration 100 μM, with SNP; for EC50: concentration giving 50% of maximum activation
Chain of human purified sGC (Q02153 whole entry): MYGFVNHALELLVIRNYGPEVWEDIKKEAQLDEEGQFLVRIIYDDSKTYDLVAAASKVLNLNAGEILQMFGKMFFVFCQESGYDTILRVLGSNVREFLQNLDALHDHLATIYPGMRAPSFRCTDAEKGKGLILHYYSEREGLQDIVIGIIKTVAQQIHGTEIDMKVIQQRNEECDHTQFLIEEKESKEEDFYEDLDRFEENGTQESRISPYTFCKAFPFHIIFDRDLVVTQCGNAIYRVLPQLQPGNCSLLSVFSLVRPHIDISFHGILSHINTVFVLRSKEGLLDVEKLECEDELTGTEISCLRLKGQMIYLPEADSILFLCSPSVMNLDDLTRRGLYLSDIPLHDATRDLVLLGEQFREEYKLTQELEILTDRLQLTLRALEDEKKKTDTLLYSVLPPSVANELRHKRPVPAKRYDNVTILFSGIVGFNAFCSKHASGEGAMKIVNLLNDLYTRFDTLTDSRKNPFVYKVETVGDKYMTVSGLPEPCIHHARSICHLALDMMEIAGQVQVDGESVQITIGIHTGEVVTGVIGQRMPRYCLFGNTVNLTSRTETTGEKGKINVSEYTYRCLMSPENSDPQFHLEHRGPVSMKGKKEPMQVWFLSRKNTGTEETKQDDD
Chain of human purified sGC (Q02108 whole entry): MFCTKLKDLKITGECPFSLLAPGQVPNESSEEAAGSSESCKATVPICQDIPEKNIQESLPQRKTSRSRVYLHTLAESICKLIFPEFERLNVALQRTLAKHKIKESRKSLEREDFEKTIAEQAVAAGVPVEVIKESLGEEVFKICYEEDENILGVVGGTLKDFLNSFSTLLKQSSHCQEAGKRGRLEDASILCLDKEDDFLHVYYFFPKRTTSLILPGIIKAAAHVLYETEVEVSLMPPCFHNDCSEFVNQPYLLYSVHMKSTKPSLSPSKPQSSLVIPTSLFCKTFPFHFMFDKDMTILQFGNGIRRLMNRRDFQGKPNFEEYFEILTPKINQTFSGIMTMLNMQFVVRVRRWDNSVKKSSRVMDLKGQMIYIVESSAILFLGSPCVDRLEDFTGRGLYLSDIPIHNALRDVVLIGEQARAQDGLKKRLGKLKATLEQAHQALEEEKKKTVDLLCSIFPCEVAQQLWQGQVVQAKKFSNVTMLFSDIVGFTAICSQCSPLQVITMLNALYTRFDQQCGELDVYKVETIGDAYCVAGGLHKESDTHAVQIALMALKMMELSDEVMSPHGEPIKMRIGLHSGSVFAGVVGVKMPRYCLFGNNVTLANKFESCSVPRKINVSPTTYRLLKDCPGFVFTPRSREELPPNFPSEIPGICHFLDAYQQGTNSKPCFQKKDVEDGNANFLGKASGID
Method: The activity of sGC was evaluated by measuring the amount of a cyclic guanosine monophosphate (cGMP) which is produced by human purified sGC.
A test compound was dissolved in DMSO and diluted 20-fold with ultrapure water. 2 μL of the diluted test compound solution (maximum concentration 100 μM), 2 μL of a substrate solution [0.5 μM TEBA, 0.03 μM dithiothreitol, 0.01 μM GTP, 0.04 μM MgCl2, and 0.03 μM sodium nitroprusside (SNP)], and 6 μL of a human enzyme suspension were added to 384-well plates (manufactured by Greiner Bio-One), and incubated at room temperature for one hour. The quantitative determination of cGMP is using HTRF which based on the competition between sample cGMP and fluorescent dye labeled cGMP for binding to a cGMP-specific antibody.
The test results of some Example compounds that are the compounds of the formula (I) of the present invention are shown below. The sGC activation of the test compound was calculated by taking the activation when the compound was not added as 100%. As compared with the activation when the compound was not added, it was recognized that a compound having a sGC activation of more than 300% has sGC activation. In addition, in Tables, Ex represents Example number in which the test compound is described and the sGC activation [%] represents sGC activation (%).
Furthermore, the EC50 [μM] value was calculated as another parameter for expressing sGC activation. This parameter indicates the concentration of the evaluated compound giving 50% of a maximum activation, which is calculated based on the maximum activation that compound of Example 102 is added, which is taken as 100%. In this connection, when a known sGC activator, YC-1 (Lificiguat, [5-(1-benzyl-1H-indazol-3-yl)-2-furyl]methanol), was evaluated according to the above Test Example 1, its maximum activation was 52% of the maximum activation for compound of Example 102. Further, “−” means no evaluation.

[3] = system: Wistar male rats; experiment: Measurement of antihypertensive effect in vivo: blood pressure via carotid cannula after oral dosing; conditions: rat
Method: Wistar male rats were used. Three days prior to administration of a drug, a cannula (PE-50, Becton, Dickinson and Company, Japan) filled with heparin physiological saline (200 U/mL, Ajinomoto Pharmaceuticals Co., Ltd.) was inserted and placed in the common carotid artery under anesthesia with intraperitoneal administration of 60 mg/kg of pentobarbital. The other end of the cannula was exposed to the back neck through the subcutaneous. After the recovery period, the placed cannula was connected to a pressure transducer (Life Kit DTS DX-100, Nihon Kohden Corporation) to record the blood pressure waveform through a Polygraph (AP-641G, Nihon Kohden Co., Ltd.) and PowerLab (ML870 PowerLab8/30 (AD Instruments Japan)). The heart rate was calculated using a heart rate measuring unit (AT-601G, Nihon Kohden Co., Ltd.). After stabilization of the blood pressure, the drug was orally administered to measure the blood pressure and the heart rates. The test compounds were administered by appropriately adding N,N-dimethylformamide, Polyethylene Glycol 400, TWEEN 80, a 0.5% aqueous methylcellulose solution, and a 0.5 M aqueous sodium bicarbonate solution, and 0.1 M hydrochloric acid therein according to the compounds and dissolving it.
The results from the measurement according to Test Example 3 are shown below according to the following criteria with a maximum value of the mean blood pressure reduction. A: <20 mmHg, B: 20 to 40 mmHg, and C: >40 mmHg

[4] = maximum activation of Example 102 taken as 100%

Structure (SMILES) | blood flow increasing effect ([1]; dose of 10 mg/kg) | sGC activation [%] [2] [%] | EC50 [2, 4] [µM] | other results
Cc1nc2c(OCC3CCCCC3)cccn2c1C(=O)N[C@@H]1c2c(F)cccc2C[C@H]1C(=O)O [Ex 704] | exhibited a blood flow increasing effect | >1000 | 11 | –
Cc1nc2c(OCC3CCCCC3)cccn2c1C(=O)NC(CO)CO [Ex 126] | – | – | 11 | –
Cc1nc2c(OCC3CCCCC3)cccn2c1C(=O)N[C@@H](CO)c1ccccc1 [Ex 102] | exhibited a blood flow increasing effect | – | 2.8 | –
Cc1nc2c(OCc3c(F)cccc3F)cccn2c1C(=O)N[C@@]1(c2ccccc2)C[C@@H](O)[C@@H](O)C1 [Ex 766] | – | – | 17 | –
Cc1cccc2c1C[C@@H](C(=O)O)[C@@H]2NC(=O)c1c(C)nc2c(OCc3c(F)cccc3F)cccn12 [Ex 698] | exhibited a blood flow increasing effect | >1000 | 19 | –
Cc1nc2c(OCc3c(F)cccc3F)cccn2c1C(=O)N[C@@H](CO)c1cccc(F)c1.Cl [Ex 436] | – | >1000 | – | –
Cc1nc2c(OCc3c(F)cccc3F)cccn2c1C(=O)N[C@@H]1c2ccccc2C[C@H]1O.Cl [Ex 430] | exhibited a blood flow increasing effect | – | 2.6 | –
Cc1nc2c(OCc3c(F)cccc3F)cccn2c1C(=O)N[C@H](C)CO [Ex 776] | – | – | 15 | –
Cc1ccc(C(CO)(CO)NC(=O)c2c(C)nc3c(OCc4c(F)cccc4F)cccn23)cc1 [Ex 827] | – | – | – | Blood pressure reduction (maximum value of the mean blood pressure reduction) ([3]; 10 mg/kg po): B (B: 20 to 40 mmHg)
Cc1nc2c(OCC3CCCCC3)cccn2c1C(=O)N[C@H]1c2c(F)cccc2C[C@@H]1C(=O)O [Ex 705] | – | – | 11 | –
Cc1nc2c(OCc3cccc(F)c3F)cccn2c1C(=O)NC(CO)(CO)c1ccccc1 [Ex 829] | – | – | 2.7 | –
Cc1nc2c(OCc3c(F)cccc3F)cccn2c1C(=O)NC(C)(C)CO [Ex 772] | – | – | 5.4 | –
Cc1nc2c(OCc3c(F)cccc3F)cccn2c1C(=O)N[C@]1(c2ccccc2)C[C@@H](O)[C@@H](O)C1 [Ex 767] | exhibited a blood flow increasing effect | – | 3 | –
Cc1nc2c(OCc3c(F)cccc3F)cccn2c1C(=O)N[C@@H]1c2c(F)cccc2C[C@H]1C(=O)O [Ex 699] | exhibited a blood flow increasing effect | >1000 | 15 | –
Cc1nc2c(OCc3c(F)cccc3F)cccn2c1C(=O)N[C@H](c1ccccc1)[C@H](O)CO [Ex 760] | exhibited a blood flow increasing effect | – | 5.9 | –
Cc1nc2c(OCc3ccccc3F)cccn2c1C(=O)N[C@@H]1c2ccccc2[C@H](O)[C@H]1O (stereo in doubt) [Ex 798] | – | – | 8.6 | –
Cc1nc2c(OCc3c(F)cccc3F)cccn2c1C(=O)N[C@@H]1c2ccccc2C[C@H]1C(=O)O [Ex 434] | – | – | 7.3 | Blood pressure reduction (maximum value of the mean blood pressure reduction) ([3]; 30 mg/kg po): C (C: >40 mmHg)
Cc1nc2c(OCc3c(F)cccc3F)cccn2c1C(=O)N[C@@H](CO)c1ccccc1.Cl [Ex 119] | exhibited a blood flow increasing effect | – | 2.9 | –
Cc1nc2c(OCC3CCCCC3)cccn2c1C(=O)N[C@H]1CCN(C)C1 [Ex 341] | – | 980 | 6.9 | blood flow increasing effect ([1]; dose of 30 mg/kg): exhibited a blood flow increasing effect
Cc1nc2c(OCc3c(F)cccc3F)cccn2c1C(=O)N[C@@H]1c2ccccc2[C@@H](O)[C@H]1O [Ex 759] | exhibited a blood flow increasing effect | – | 2.2 | –

Structure (SMILES) | blood flow increasing effect ([1]; dose of 10 mg/kg) | sGC activation [%] [2] [%] | EC50 [2, 4] [µM] | other results
Cc1nc2c(OCc3c(F)cccc3F)cccn2c1C(=O)N[C@@H]1c2ccccc2C[C@@H]1O.Cl [Ex 431] | – | – | – | Blood pressure reduction (maximum value of the mean blood pressure reduction) ([3]; 10 mg/kg po): B (B: 20 to 40 mmHg)
Cc1nc2c(OCc3c(F)cccc3F)cccn2c1C(=O)N[C@H]1CCCN(S(N)(=O)=O)C1 [Ex 247] | exhibited a blood flow increasing effect | – | 2.4 | –
Cc1nc2c(OCc3c(F)cccc3F)cccn2c1C(=O)NC(CO)(CO)c1ccccn1 [Ex 834] | exhibited a blood flow increasing effect | – | 4.1 | –
Cc1nc2c(OCC3CCCCC3)cccn2c1C(=O)N[C@@H]1c2ccc(F)cc2C[C@H]1C(=O)O [Ex 706] | exhibited a blood flow increasing effect | >1000 | 4.7 | –
Cc1nc2c(OCc3c(F)cccc3F)cccn2c1C(=O)N[C@H]1CCCNC1 [Ex 822] | – | – | 5.6 | –
Cc1nc2c(OCC3CCCCC3)cccn2c1C(=O)N[C@@H](C)c1cccc(C(=O)O)c1 [Ex 323] | – | – | 13 | –
Cc1cccc2c1C[C@@H](C(=O)O)[C@@H]2NC(=O)c1c(C)nc2c(OCC3CCCCC3)cccn12 [Ex 693] | exhibited a blood flow increasing effect | >1000 | 17 | –
Cc1nc2c(OCCC(C)(C)C)cccn2c1C(=O)N[C@@H](CO)c1ccccc1.Cl [Ex 205] | – | >1000 | – | –
Cc1nc2c(OCC3CCCCC3)cccn2c1C(=O)N[C@@H](CC(=O)O)CC1CCC1 [Ex 179] | exhibited a blood flow increasing effect | – | 2.7 | –
Cc1nc2c(OCc3c(F)cccc3F)cccn2c1C(=O)N[C@@H](CO)C(C)C [Ex 778] | – | – | 6.3 | –
Cc1nc2c(OCc3c(F)ccc(F)c3F)cccn2c1C(=O)N[C@@H](CO)c1ccccc1.Cl [Ex 244] | – | >1000 | – | blood flow increasing effect ([1]; dose of 30 mg/kg): exhibited a blood flow increasing effect
Cc1nc2c(OCC3CCCCC3)cccn2c1C(=O)N[C@@H](CC(=O)O)c1ccccc1 [Ex 251] | exhibited a blood flow increasing effect | >1000 | 6.1 | –
Cc1nc2c(OCc3c(F)cccc3F)cccn2c1C(=O)NC(CO)(CO)c1ccccc1.Cl [Ex 424] | exhibited a blood flow increasing effect | >1000 | 2.4 | –
OCc1ccc(-c2nn(Cc3ccccc3)c3ccccc23)o1 [YC-1, [5-(1-benzyl-1H-indazol-3-yl)-2-furyl]methanol, reference compound] | – | – | – | Emax ([2]; maximum activation of Example 102 taken as 100%, read-out: maximum activation relative to the maximum activation for compound of Example 102): 52%
Cc1nc2c(OCC3CCCCC3)cccn2c1C(=O)N[C@H]1CCCN(C)C1 [Ex 226] | – | >1000 | 6.7 | –
Cc1nc2c(OCc3ccccc3F)cccn2c1C(=O)NC(CO)(CO)c1ccccc1 [Ex 828] | – | – | 7.6 | –
Cc1nc2c(OCc3cccc(F)c3F)cccn2c1C(=O)N[C@@H]1c2ccccc2[C@H](O)[C@H]1O (stereo in doubt) [Ex 797] | – | – | 8.9 | –
Cc1nc2c(OCc3c(F)ccc(F)c3F)cccn2c1C(=O)N[C@@H]1c2ccccc2C[C@H]1C(=O)O [Ex 702] | exhibited a blood flow increasing effect | >1000 | 6.2 | –
Cc1nc2c(OCC3CCCCC3)cccn2c1C(=O)N[C@@H]1c2ccccc2C[C@H]1C(=O)O [Ex 321] | exhibited a blood flow increasing effect | >1000 | 4.5 | –
Cc1nc2c(OCC3CCCCC3)cccn2c1C(=O)N[C@@H](CC(=O)O)CC(C)C [Example 12, (3R)-3-({[8-(cyclohexylmethoxy)-2-methylimidazo[1,2-a]pyridin-3-yl]carbonyl}amino)-5-methylhexanoic acid] | exhibited a blood flow increasing effect | – | 3 | –
